Results taken from PubChem BioAssay (NCI).
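Protocol summary: plate cells (96-well), add compound at 5 concentrations, incubate 48 h, interpolate endpoints linearly. The concentration for 50% growth inhibition is given as GI50. TGI is the concentration that stops growth completely.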

Key:
Test in all cases: growth of human tumour cells (NCI), 48 h
[1] = system: A498 renal
[2] = system: SK-MEL-2 melanoma
[3] = system: COLO 205 colon
[4] = system: MOLT-4 leukemia
[5] = system: KM12 colon
[6] = system: OVCAR-4 ovarian
[7] = system: HL-60(TB) leukemia
[8] = system: K-562 leukemia
[9] = system: HCT-15 colon
[10] = system: HT29 colon
[11] = system: UACC-257 melanoma
[12] = system: SF-539 CNS
[13] = system: T-47D breast
[14] = system: MDA-MB-435
[15] = system: HOP-92 NSCLC
[16] = system: HOP-62 NSCLC
[17] = system: MCF7 breast
[18] = system: SNB-19 CNS
[19] = system: IGROV1 ovarian
[20] = system: SW-620 colon
[21] = system: HCC-2998 colon
[22] = system: SK-MEL-5 melanoma
[23] = system: MALME-3M melanoma
[24] = system: NCI-H522 lung
[25] = system: SF-268 CNS
[26] = system: MDA-MB-231 breast
[27] = system: EKVX NSCLC
[28] = system: SR leukemia
[29] = system: PC-3 prostate
[30] = system: TK-10 renal
[31] = system: OVCAR-3 ovarian
[32] = system: NCI-H460 lung
[33] = system: M14 melanoma
[34] = system: RPMI-8226 leukemia
[35] = system: SF-295 CNS
[36] = system: HS 578T breast
[37] = system: LOX IMVI melanoma
[38] = system: BT-549 breast
[39] = system: OVCAR-8 ovarian
[40] = system: RXF 393 renal
[41] = system: CCRF-CEM leukemia
[42] = system: OVCAR-5 ovarian
[43] = system: SNB-75 CNS
[44] = system: UO-31 renal
[45] = system: SK-MEL-28 melanoma
[46] = system: UACC-62 melanoma
[47] = system: HCT-116 colon
[48] = system: SN12C renal
[49] = system: NCI-H23 lung
[50] = system: NCI/ADR-RES ovarian
[51] = system: A549 NSCLC
[52] = system: SK-OV-3 ovarian
[53] = system: 786-0 renal
[54] = system: CAKI-1 renal
[55] = system: ACHN renal
[56] = system: DU-145 prostate
[57] = system: U251 CNS

CC[C@@H](C(=O)[C@@H](C)[C@@H](O)[C@H](C)[C@@H]1O[C@@H]([C@@H](CC)C(=O)O)CC[C@@H]1C)[C@H]1OC2(C=C[C@@H](O)[C@]3(CC[C@@](C)([C@H]4CC[C@](O)(CC)[C@H](C)O4)O3)O2)[C@H](C)C[C@@H]1C (some centres undefined)
GI50 [1]: 27.6 nM | TGI [1]: 458 nM | GI50 [2]: 622 nM | TGI [2]: 2000 nM | GI50 [3]: 124 nM | TGI [3]: 5.47 µM | GI50 [4]: 726 nM | TGI [4]: 2500 nM | GI50 [5]: 766 nM | TGI [5]: 8.43 µM | GI50 [6]: 3.01 µM | TGI [6]: 49.3 µM | GI50 [7]: 89.4 nM | TGI [7]: 316 nM | GI50 [8]: 213 nM | TGI [8]: 3.39 µM | GI50 [9]: 1420 nM | TGI [9]: > 50 µM | GI50 [10]: 231 nM | TGI [10]: 19.7 µM | GI50 [11]: 241 nM | TGI [11]: 5.49 µM | GI50 [12]: 434 nM | TGI [12]: 8.85 µM | GI50 [13]: 174 nM | TGI [13]: 10.4 µM | GI50 [14]: 568 nM | TGI [14]: 1510 nM | GI50 [15]: 82.9 nM | TGI [15]: 5.45 µM | GI50 [16]: 447 nM | TGI [16]: 20.7 µM | GI50 [17]: 154 nM | TGI [17]: > 39.2 µM | GI50 [18]: 577 nM | TGI [18]: > 14.2 µM | GI50 [19]: 1840 nM | TGI [19]: > 50 µM | GI50 [20]: 733 nM | TGI [20]: 9.14 µM | GI50 [21]: 105 nM | TGI [21]: 10.5 µM | GI50 [22]: 160 nM | TGI [22]: 534 nM | GI50 [23]: 224 nM | TGI [23]: 860 nM | GI50 [24]: 77.4 nM | TGI [24]: 605 nM | GI50 [25]: 1700 nM | TGI [25]: 26.3 µM | GI50 [26]: 239 nM | TGI [26]: 17.1 µM | GI50 [27]: 220 nM | TGI [27]: > 32 µM | GI50 [28]: 81.5 nM | TGI [28]: 1780 nM | GI50 [29]: 40.8 nM | TGI [29]: > 50 µM | GI50 [30]: 1250 nM | TGI [30]: 20.1 µM | GI50 [31]: 101 nM | TGI [31]: 15.1 µM | GI50 [32]: 324 nM | TGI [32]: 7.79 µM | GI50 [33]: 790 nM | TGI [33]: 1880 nM | GI50 [34]: 117 nM | TGI [34]: 4.48 µM | GI50 [35]: 263 nM | TGI [35]: 19.8 µM | GI50 [36]: 311 nM | TGI [36]: > 50 µM | GI50 [37]: 505 nM | TGI [37]: > 19 µM | GI50 [38]: 233 nM | TGI [38]: 2970 nM | GI50 [39]: 823 nM | TGI [39]: > 48.3 µM | GI50 [40]: 48.5 nM | TGI [40]: 1850 nM | GI50 [41]: 285 nM | TGI [41]: 10.7 µM | GI50 [42]: 7.87 µM | TGI [42]: > 50 µM | GI50 [43]: 1200 nM | TGI [43]: > 24.2 µM | GI50 [44]: 1270 nM | TGI [44]: > 41.4 µM | GI50 [45]: 630 nM | TGI [45]: 1310 nM | GI50 [46]: 701 nM | TGI [46]: 1550 nM | GI50 [47]: 359 nM | TGI [47]: 14.4 µM | GI50 [48]: 140 nM | TGI [48]: > 50 µM | GI50 [49]: 207 nM | TGI [49]: 15.4 µM | GI50 [50]: 434 nM | TGI [50]: > 50 µM | GI50 [51]: 233 nM | TGI [51]: 9.77 µM | GI50 [52]: 1760 nM | TGI [52]: 22.6 µM | GI50 [53]: 589 nM | TGI [53]: 12.4 µM | GI50 [54]: 1200 nM | TGI [54]: > 50 µM | GI50 [55]: 1680 nM | TGI [55]: > 50 µM | GI50 [56]: 1580 nM | TGI [56]: > 50 µM | GI50 [57]: 135 nM | TGI [57]: 5.56 µM
